Data from paper PMC7782499, “Progerinin, an optimized progerin-lamin A binding inhibitor, ameliorates premature senescence phenotypes of Hutchinson-Gilford progeria syndrome” (Communications Biology, 2021).
Several values for one entry are separate records, joined by “and”; a condition that tells them apart may be missing. Equal entries are not always repeated.

Test system: HGPS cells
Experiment: Nuclear deformation counting in HGPS cells
Type: cell-based, human
Parameters: key to Nuclear deformation (rate): fraction of nuclear-deformed cells, relative to DMSO-treated cells
Details: for Nuclear deformation (rate): 7 days, normalized to DMSO-treated cells; for Nuclear deformation: AG03198
Procedure: Fig. 1 SLC-D011 ameliorates premature aging features of HGPS. A. HEK293 cells were transiently transfected with expression vector encoding wild-type lamin A (WT-LA), lamin A-C661A (LA-C661A), progerin, or progerin-C611A. LA-C661A or progerin-C611A with point mutation in CaaX motif was predicted to be lack of farnesylation, […] that of authentic WT-LA or progerin. GFP-conjugated empty expression vector was used as a negative control. Cells were visualized at 24 h after transfection. B Transient transfection of HEK293 cells with expression vector encoding progerin or […] leads to reduced expression of H3K9me3 (n = 3 independent experiments; two-tailed Student’s t test). C. JH4 derivatives (JH010 and SLC-D011(D011)) inhibit lamin A and progerin interaction. For binding inhibition assay, bead-conjugated lamin A (GST-LA) was incubated with HEK293 cells, transiently transfected with GFP-progerin (PG), and treated with indicated chemicals. Actin was used as a loading control. PPT, co-precipitated materials with recombinant proteins; Sup supernatant. 5 μM of each chemical was used for binding assay. […] H3K9me3 reduction is a well-known marker for premature aged cells. Thus, H3K9me3 expression was evaluated by immunostaining. […] E SLC-D011 obviously suppresses progerin expression. For progerin expression analysis, each chemical was used to treat HGPS cells (AG03198, Coriell Cell Repositories) for 7 days. […] F SLC-D011 reduces the expression of progerin in other HGPS cells (AG11513 and AG11498, Coriell Cell Repositories). Treatment with SLC-D011 (2 μM) for 7 days reduced the expression of progerin and p16/INK4A but induced the expression of H3K9me3. […] G JH4, JH010, and SLC-D011 promote cell proliferation. Cell viability was determined by MTT assay after incubation with chemicals for 7 days (n = 3 independent experiments; two-tailed Student’s t test). H JH4, JH010, and SLC-D011 show similar activity for ameliorating nuclear deformation. After incubation with chemicals for 7 days, cells were stained with progerin and H3K9me3 antibodies (n = 3 independent experiment; two-tailed Student’s t test), **p < 0.001. Data are reported as mean ± SD. “Con” means Dimethyl sulfoxide (DMSO)-treated control. The data are normalized to DMSO-treated cells.
For nuclear deformation cell counting, immunofluorescence staining was performed with lamin A or progerin antibodies. After staining, abnormal nuclear membrane was counted in randomly selected fields and expressed as percentages or actual numbers of total cells counted. Abnormalities of nuclear membrane were determined based on the following: (1) lamin A/C or progerin lining was extruded or engulfed, (2) having at least one bleb, and (3) irregular contour. Counting of cells with nuclear deformation was performed by three independent observers who were blinded to chemical treatment group. To analyze histone H3K9me3 intensity or expression, images were quantified using “color histogram” function of Image J software (National Institute of Health, NIH). Fluorescence intensities were subtracted by background signals.

CC1(C)Oc2cc3oc(=O)ccc3cc2CC1OC(=O)C=Cc1cccnc1 (centres unmarked) [JH4]
Nuclear deformation (rate) (AG03198, 2uM): 0.7742 and 0.8571 and 0.5758 and 0.6176 and 0.8 and 0.6765 | Nuclear deformation (rate) (AG03198, 2uM, mean): 0.7169 | Nuclear deformation (rate) (AG03198, 5uM): 0.5161 and 0.5357 and 0.5455 and 0.4706 and 0.5667 and 0.5294 | Nuclear deformation (rate) (AG03198, 5uM, mean): 0.5273

CC1(C)Oc2cc3oc(=O)ccc3cc2C[C@@H]1OC/C=C/c1ccccc1 [SLC-D011]
Nuclear deformation (rate) (AG03198, 2uM): 0.4839 and 0.6786 and 0.4545 and 0.4706 and 0.5 | Nuclear deformation (rate) (AG03198, 2uM, mean): 0.5146 | Nuclear deformation (rate) (AG03198, 5uM): 0.4194 and 0.4286 and 0.303 and 0.2353 and 0.3667 and 0.2941 | Nuclear deformation (rate) (AG03198, 5uM, mean): 0.3412 | Nuclear deformation (0.1μM, Ave): 36.4% | Nuclear deformation (0.1μM, individual replicate): 35% and 37% and 40% and 36% and 34% | Nuclear deformation (0.2μM, Ave): 33.2% | Nuclear deformation (0.2μM, individual replicate): 33% and 34% and 30% and 36% | Nuclear deformation (0.5μM, Ave): 25.8% | Nuclear deformation (0.5μM, individual replicate): 29% and 28% and 27% and 19% and 26% | Nuclear deformation (1μM, Ave): 21.4% | Nuclear deformation (1μM, individual replicate): 23% and 20% and 22% and 19%

NC(=O)N1CCC(CC(=O)N2CCC([C@H]3c4ncc(Br)cc4CCc4cc(Cl)cc(Br)c43)CC2)CC1 [lonafarnib, reference compound]
Nuclear shape (HGPS cells): induced donut-shaped nuclei
